Laboratory results published in patent publication US20230193262A1, “Nucleic acid molecules capable of modulating target gene expression and uses thereof” (KOREA ADVANCED INSTITUTE OF SCIENCE AND TECHNOLOGY, priority 2021, published 2023).
“Also recorded” adds a separate entry of the source. In the oligonucleotide strings, read from the 5' end, every base follows the letter of its sugar. An asterisk marks phosphorothioate; unmarked linkages are phosphodiester. Other units and linkages are bracketed, terminal groups are in braces. A string of capitals states the bases alone. d = 2'-deoxy (DNA)

Tests used:
Format in all cases: cell-based
cells = assay: Cytotoxicity (CCK-8 cell viability) of chemically modified miRNA triggers
Procedure: (§1) The miRNA triggers were assayed for cytotoxicity and apoptosis induction, using the CCK-8 (Cell Counting Kit-8) (Dojindo, Kumamoto, Japan) according to the manufacturer's instruction. Cells were incubated in 96-well plates (5×10^3 cells/well) at 37° C. for 24 hours under a 5% CO2 atmosphere, followed by transfection. Three days after transfection, the medium was removed. A 10-fold dilution of CCK-8 solution in DMEM was added to the cells which were then incubated at 37° C. for 2 hours. After incubation, absorbance was read at 450 nm on Tecan Infinite M200 pro microplate reader (Mnnedorf, Switzerland).
In addition, FPS HP and 2′-OMe HP, which were the most resistant to degradation in biological samples, were analyzed for cytotoxicity. In this regard, the HP in which the entire nucleotides of miRNA trigger (LP) were modified with PS (expressed as PS in Table 6 and FIG. 6), the linear probe in which the entire nucleotides of miRNA trigger (LP) were modified with 2′-O-Me (expressed as 2′O-me in Table 6 and FIG. 6), the control DNA LP (expressed as DNA in Table 6 and FIG. 6), or siRNA was transfected into cells which were then measured for cell viability using the method of Reference Example 9. The result is depicted in FIG. 6. […]

miR-155 = miR-155 expression after treatment with AML therapeutic agents; conditions: FLT3-ITD mutated AML cell line (NOLM-14); IC50 dose, 37° C., 72 hours
Procedure: The FLT3-ITD mutated AML cell line (NOLM-14) was treated with an IC50 dose of cytarabine, azacitidine, decitabine, venetoclax, or gilteritinib, which is used as standard therapeutic agents for AML, at 37° C. for 72 hours, followed by measuring expression levels of miR-155.

Hela cells = assay: Cell viability / apoptosis (CCK-8) in Hela cells
Procedure: as §1
(§2) The linear miRNA triggers or siRNAs (siLuc and siMcl-1) prepared above were transfected into Hela, Hela-141, and Hela-200c cells which were then measured for cell viability. The results are depicted in FIG. 15.
(§3) The hairpin miRNA triggers prepared above were transfected into Hela and Hela-141 cells which were then assayed for apoptosis. As a control, the siRNA (siMcl-1; Table 14) which can repress the expression of mcl-1 was transfected to Hela and Hela-141 cells and measured for apoptotic activity.

Hela-141 cells = assay: Cell viability / apoptosis (CCK-8) in Hela-141 cells; conditions: Hela-141 cells
Procedure: as §1, §2, §3

Hela-200c cells = assay: Cell viability / apoptosis (CCK-8) in Hela-200c cells
Procedure: as §1, §2

[1] = system: MCF-7 breast cancer cells; assay: Cell viability / apoptosis in MCF-7; conditions: single siRNA, final concentration 60 nM
Procedure: as §1
An siRNA targeting bcl-2, bcl-xL, or mcl-1 was transfected into MCF-7 breast cancer cells and PANC-1 pancreatic cancer cells. By using qRT-PCR, establishment was made of a condition under which the expression of each target gene is decreased by 80% or more (transfection was performed at a concentration of 60 nM with the aid of Lipofectamine). As a negative control, a Luc (Luciferase)-targeting siRNA (siLuc) was used. Under the same condition of decreasing the expression of each target gene by 80% or more, the cells transfected with the siRNAs were measured for apoptosis, and the results are depicted in FIGS. 14a and 14b.
Linear miRNA triggers that could bind to miR-141 or let7f and target bcl-xL or mcl-1 were prepared and transfected alone or in combination into the breast cancer cell line MCF-7 which was then measured for cell viability. Every nucleotide of the triggers and controls was chemically modified with 2′-OMe.
First, MCF-7 was measured for cell viability after treatment with siMCL-1, siBCL-xL, and siBCL-2 (FIG. 48). […] The final concentration of the siRNAs was 60 nM.
Next, examination was made of the apoptosis when two or more genes were regulated together. MCF-7 was measured for cell viability after treatment with siMCL-1+siBCL-xL, siMCL-1+siBCL-2, siBCL-xL+siBCL-2, and siMCL-1+siBCL-xL+siBCL-2 (FIG. 49).
Finally, experiments under all the conditions (individual and simultaneous regulation) were conducted simultaneously so as to compare effects thereof. […]

GFP mRNA = assay: GFP fluorescence intensity in GFP-expressing Hela-141 cells; conditions: siGFP compared to siLuc, trigger 30 to 60 nM
Source text: A GFP fluorescent protein-expressing plasmid (used in Chen L L, DeCerbo J N, Carmichael G G. 2008. Alu element-mediated gene silencing. EMBO J 27: 1694-1705) was transfected into Hela-141 cells to prepare GFP-expressing Hela-141 cells. As stated in Reference Example 1, a linear miRNA trigger (LP; GFP_141_141), which can target GFP mRNA (=complementarily bind to GFP mRNA to regulate the expression of GFP) and complementarily bind to miR-141, and siRNAs which target GFP and Luc (Luciferase), respectively, were synthesized in Bioneer Inc. Sequences of the LP and siRNAs and types and positions of chemical modifications in each sequence are listed in Table 8, below.
Above all, siLuc and siGFP were transfected into the GFP-expressing Hela-141 cells which were then measured for fluorescence intensity on an ELISA reader. […] In addition, the linear miRNA trigger (GFP(1)_141_141) was transfected into the GFP-expressing Hela-141 cells which were then measured for fluorescence intensity. The result is depicted in FIG. 8. For the transfection, the GFP plasmid and GFP_141_141 were used at a concentration of 0.5 to 1 μg/ml and 30 to 60 nM, respectively.

## 2′-O-Me: linear probe, entire nucleotides modified with 2′-O-Me; SEQ ID NO 38 (UCGAAGUACUCAGCGUAAGUUCGAAGUACUCAGCGUAAGUUCGAAGUACUCAGCGUAAGU; all 2'-O-methyl, backbone not given here)
cells; CCK-8
  cell viability versus non-transfected negative control (NT): not significantly different in viability from the negative control

## PS: miRNA trigger (LP), entire nucleotides modified with PS, random sequences; SEQ ID NO 37 (dT*dC*dG*dA*dA*dG*dT*dA*dC*dT*dC*dA*dG*dC*dG*dT*dA*dA*dG*dT*dT*dC*dG*dA*dA*dG*dT*dA*dC*dT*dC*dA*dG*dC*dG*dT*dA*dA*dG*dT*dT*dC*dG*dA*dA*dG*dT*dA*dC*dT*dC*dA*dG*dC*dG*dT*dA*dA*dG*dT)
cells; transfected cells, CCK-8, random sequences
  cell viability: less than 40%

## Nc1ccn([C@@H]2O[C@H](CO)[C@@H](O)[C@@H]2O)c(=O)n1 [cytarabine]
miR-155
  miR-155 expression: did not repress miR-155 express

## siMcl-1: siRNA targeting mcl-1; SEQ ID NO 64 (AAAUUCGAUACUUCCUUCG; listed as RNA, chemistry not given here) [reference compound]
Hela cells
  apoptosis / cell viability: induced apoptosis; also recorded: apoptotic effect
Hela-141 cells
  apoptosis / cell viability: induced apoptosis; also recorded: apoptotic effect
Hela-200c cells
  apoptosis / cell viability: induced apoptosis
[1]
  apoptosis (cell viability): apoptosis was detected; also recorded: greatest apoptosis

## Nc1ncn([C@@H]2O[C@H](CO)[C@@H](O)[C@H]2O)c(=O)n1 [azacitidine]
miR-155
  miR-155 expression: did not repress miR-155 express

## siGFP: siRNA which targets GFP; SEQ ID NO 44 (UUAUGUUUCAGGUUCAGGG; RNA, backbone not given here) [reference compound]
GFP mRNA
  GFP fluorescence intensity: significantly reduced fluorescence intensity

## siBcl-xL: siRNA targeting bcl-xL; SEQ ID NO 63 (UUGGUCCCUCAGUAUGGUC; listed as RNA, chemistry not given here)
[1]
  apoptosis (cell viability): apoptosis was detected

B1: GFP(1)_141_141: linear miRNA trigger targeting GFP mRNA and binding miR-141; SEQ ID NO 41 (nucleic acid)
chain: CCAUCUUUACCUCACAGUGUUACCAUCUUUACCUCACAGUGUUAUUAUGUUUCAGGUUCAGGGGGA
modifications: all 2'-O-methyl, backbone not given here
GFP mRNA
  GFP fluorescence intensity: reduced GFP fluorescence intensity in a dose-dependent manner
